Patent publication US10077248B2, “Form of imazapyr, a process for its preparation and use the same” (priority 2015, dated 2018)

Assay type: physicochemical
Procedure: Samples prepared in Examples 4, and 5 were stored at 54° C. for 1 month, 3 months and 6 months. The procedures are followed according to CIPAC MT 46.3. The concentration of imazapyr was tested at the end of each storage time by high pressure liquid chromatography (HPLC). The aggregation was measured by observation. The original concentration of imazapyr in each formulation was 25%.

CC(C)C1(C)N=C(c2ncccc2C(=O)O)NC1=O (racemic) [crystalline modification I of imazapyr, 2-[(RS)-4-isopropyl-4-methyl-5-oxo-2-imidazolin-2-yl]nicotinic acid]
storage stability / tendency of aggregation (in words): significant increase in its storage stability

CC(C)C1(C)N=C(c2ncccc2C(=O)O)NC1=O (racemic) [imazapyr in amorphous state, 2-[(RS)-4-isopropyl-4-methyl-5-oxo-2-imidazolin-2-yl]nicotinic acid]
storage stability / tendency of aggregation (in words): high tendency of aggregation after a long storage time
